Experimental data published in US5972598A, “Methods for preventing multidrug resistance in cancer cells” (priority 1995, dated 1999).
Entries after “also recorded” stand apart in the source; their conditions may differ. Read-outs that look alike come from different tables or passages of the source.

What was measured:
MDR1 [1] = assay: Inhibition of cytotoxic drug (Ara-C) induced MDR1 expression by protein kinase inhibitors; type: cell-based, human; conditions: for inhibition of Ara-C induced MDR1 expression: 5 μM
Experimental: FIG. 5. Effect of protein kinase inhibitors on MDR1 mRNA induction by cytotoxic drugs in H9 cells. […]
(Commercially-available kits (for example, from GIBCO/BRL, Gaithersburg, Md.) can be advantageously modified for making cDNA using random hexamers.) PCR is then performed using the following primers: […]
(§1) (where β2 M represents β2 microglobulin). PCR was performed for β2 M experiments under a regime consisting of 1 cycle comprising denaturation at 94° C. for 3 minutes, primer annealing at 60° C. for 30 seconds, and primer extension at 72° C. for 1 minute, followed by 19 cycles comprising denaturation at 94° C. for 30 seconds, primer annealing at 60° C. for 30 seconds, and primer extension at 72° C. for 1 minute, followed by a final cycle comprising denaturation at 94° C. for 30 seconds, primer annealing at 60° C. for 30 seconds, and primer extension at 72° C. for 5 minutes. MDR1 cDNA sequences were amplified using the identical protocol as for β2 M, but extending the amplification from 19 cycles to 25 cycles. In addition, the cDNA-PCR amplification protocol contained the following modifications: (i) Taq DNA polymerase was added to the PCR mixtures after initial heating of the samples to 94° C. (ii) The yield of the β2 -microglobulin-specific band, obtained after 22-28 cycles of PCR, was used as the primary criterion for equalizing the starting amounts of the cDNA templates in different preparations, in order to account for differential RNA degradation in cells subjected to different types of treatment. […] PCR products were detected by autoradiography.
Cells were plated in 6-well Falcon tissue culture plates at 3,300 cells per well, and incubated in the appropriate concentrations of drugs. Each of the protein kinase inhibitors to be tested were added at their appropriate final concentrations 45 minutes prior to MDR1 induction by the addition of Ara-C or TPA, with the exception of herbimycin A, which was added 12 hours prior to Ara-C or TPA, and tyrphostins A25 and B46, which were each added 16 hours prior to MDR1 induction by the addition of Ara-C or TPA. Cells were incubated overnight (TPA) or for 10 hours (Ara-C) at 37° C. under an atmosphere of 5% CO2 after the addition of the MDR1 inducing agents before harvesting for cDNA-PCR analysis.
In addition to these conditions, the analysis of certain drugs imposed added requirements. For experiments using calphostin C, cells were incubated under direct white light illumination. For experiments using D,L-threo-sphingosine, the cell culture medium was pre-treated with the appropriate concentration of the drug for one hour at 37° C. with continuous gentle mixing. After this pre-treatment, cells were resuspended in media supplemented with drug and incubated for 45 minutes as described above.
cDNA-PCR analyses on each culture treated with drugs, or in control cultures incubated in the absence or presence of Ara-C or TPA alone, were performed as described in Section 6.1.3 above.
To further evaluate the capacity of protein kinase inhibitors to suppress MDR1 induction by cytotoxic drugs and PKC agonists, H-9 human T cell leukemia cells were used in cDNA-PCR assays to examine induced MDR1 mRNA expression levels in the presence of such protein kinase inhibitors.

H9 cells = assay: Cellular toxicity in H9 cells; conditions: concentrations higher than 5 μM
protein kinases = conditions: 10-fold weaker than H7; Pelosin et al., 1990; cited from earlier work
P-glycoprotein [2] = target: P-glycoprotein (Homo sapiens, UniProt P08183); assay: Rh123 accumulation assay of P-glycoprotein activity in human PBL; conditions: human PBL
Experimental: KG1 cell line was maintained in Iscove's modified Dulbecco medium with 20% fetal calf serum (FCS) and 2 mM L-glutamine, 100 units/ml penicillin and 100 μg/ml streptomycin (GIBCO Laboratories, Grand Island, N.Y.).
A functional assay was used to detect changes in P-glycoprotein activity in human PBL treated with different agents that induce lymphoid differentiation or activation, based on flow cytometric analysis of cellular accumulation of Rh123, which is a P-glycoprotein-transported fluorescent mitochondrial dye. In this assay, cells expressing little or no P-glycoprotein stain brightly with Rh123, whereas cells with higher levels of P-glycoprotein activity appear Rh123-dull. […] Since the best-known cellular effect of TPA is the stimulation of PKC, it was also tested whether DOG, a cell-permeable diacylglycerol and a physiological stimulant of PKC, would have an effect on Rh123 accumulation in PBL.

MDR1 [3] = assay: cDNA-PCR / flow cytometric analysis of MDR1 induction by PKC agonists; type: cell-based, human
Experimental: (§2) Neomycin sulfate (Calbiochem) was dissolved in sterile, deionized water.
(§3) P-glycoprotein expression on the cell surface was analyzed using a P-glycoprotein-specific mouse IgG2a monoclonal antibody (mAB) UIC2 (Mechetner and Roninson, 1992, Proc. Natl. Acad. Sci. USA 89:5824-5828). Mouse IgG2a isotype control antibody was obtained from Sigma. For staining of PBL with UIC2 mAB or isotype control, 10^6 cells were stained at 4° C. with 10 μg of the antibody for 30 minutes and, after two washes, stained for 30 minutes with 10 μg of FITC-conjugated goat anti-mouse IgG2a antibody (Fisher Scientific, Fairlawn, N.J.), diluted 1:2 with PBS plus 2% FCS. Cells were then washed twice with ice-cold PBS plus 2% FCS, stained with PI and kept on ice until analysis. Essentially the same protocol was used for staining of other cell types except that 2 μg of the secondary antibody were used per 10^6 cells. In some experiments, phycoerythrine (PE)-conjugated goat anti-mouse IgG2a was used as the secondary antibody; no PI was added in such cases. Flow cytometric analysis was conducted on a Coulter Epics 753 Flow Cytometer.
(§4) RNA was extracted from approximately 10^6 cells by a small-scale sodium dodecyl sulfate extraction procedure (Peppel and Baglioni, 1990, BioTechniques 9:711-713). In the alternative, RNA was isolated from cells using the TRIzol method (commercially available from GIBCO/BRL). cDNA synthesis and polymerase chain reaction (PCR) amplification of MDR1 and β2 -microglobulin cDNA sequences were carried out essentially as described (Noonan et al., 1990, Proc. Natl. Acad. Sci. USA 87:7160-7164; Noonan and Roninson, 1991, pp. 319-333 In Roninson (Ed.), Molecular and Cellular Biology of Multidrug Resistance in Tumor Cells, Plenum Press, New York). Briefly, cDNA was prepared using the method of Krug and Berger (1987, Meth. Enzymol. 152: 316-324), with the modification that random hexamers were substituted for oligo(dT) as primers for cDNA synthesis. (Commercially-available kits (for example, from GIBCO/BRL, Gaithersburg, Md.) can be advantageously modified for making cDNA using random hexamers.) PCR is then performed using the following primers: […]
as §1

MDR1 [4] = type: cell-based, human
Experimental: as §2, §3, §4, §1
MDR1 gene expression was evaluated by a functional assay for Rh123

MDR1 [5] = system: MDR1; parameters: key to the marks not given beside the values
P-glycoprotein [6] = assay: UIC2 antibody staining of P-glycoprotein on the cell surface; type: cell-based; conditions: human PBL
Experimental: as §3
To determine if the observed effect of PKC stimulants on P-glycoprotein activity could be due to an increase in P-glycoprotein expression, untreated and TPA-treated PBL were stained by indirect immunofluorescence labeling with a monoclonal antibody UIC2 that recognized an extracellular epitope of P-glycoprotein encoded by the human MDR1 gene. […]

[7] = system: hormone-refractory prostate cancer; conditions: continuous infusion, peak of 300 μg/ml at end of 14 days; cited from earlier work

Chain of P-glycoprotein (Homo sapiens, UniProt P08183) (P08183 whole entry): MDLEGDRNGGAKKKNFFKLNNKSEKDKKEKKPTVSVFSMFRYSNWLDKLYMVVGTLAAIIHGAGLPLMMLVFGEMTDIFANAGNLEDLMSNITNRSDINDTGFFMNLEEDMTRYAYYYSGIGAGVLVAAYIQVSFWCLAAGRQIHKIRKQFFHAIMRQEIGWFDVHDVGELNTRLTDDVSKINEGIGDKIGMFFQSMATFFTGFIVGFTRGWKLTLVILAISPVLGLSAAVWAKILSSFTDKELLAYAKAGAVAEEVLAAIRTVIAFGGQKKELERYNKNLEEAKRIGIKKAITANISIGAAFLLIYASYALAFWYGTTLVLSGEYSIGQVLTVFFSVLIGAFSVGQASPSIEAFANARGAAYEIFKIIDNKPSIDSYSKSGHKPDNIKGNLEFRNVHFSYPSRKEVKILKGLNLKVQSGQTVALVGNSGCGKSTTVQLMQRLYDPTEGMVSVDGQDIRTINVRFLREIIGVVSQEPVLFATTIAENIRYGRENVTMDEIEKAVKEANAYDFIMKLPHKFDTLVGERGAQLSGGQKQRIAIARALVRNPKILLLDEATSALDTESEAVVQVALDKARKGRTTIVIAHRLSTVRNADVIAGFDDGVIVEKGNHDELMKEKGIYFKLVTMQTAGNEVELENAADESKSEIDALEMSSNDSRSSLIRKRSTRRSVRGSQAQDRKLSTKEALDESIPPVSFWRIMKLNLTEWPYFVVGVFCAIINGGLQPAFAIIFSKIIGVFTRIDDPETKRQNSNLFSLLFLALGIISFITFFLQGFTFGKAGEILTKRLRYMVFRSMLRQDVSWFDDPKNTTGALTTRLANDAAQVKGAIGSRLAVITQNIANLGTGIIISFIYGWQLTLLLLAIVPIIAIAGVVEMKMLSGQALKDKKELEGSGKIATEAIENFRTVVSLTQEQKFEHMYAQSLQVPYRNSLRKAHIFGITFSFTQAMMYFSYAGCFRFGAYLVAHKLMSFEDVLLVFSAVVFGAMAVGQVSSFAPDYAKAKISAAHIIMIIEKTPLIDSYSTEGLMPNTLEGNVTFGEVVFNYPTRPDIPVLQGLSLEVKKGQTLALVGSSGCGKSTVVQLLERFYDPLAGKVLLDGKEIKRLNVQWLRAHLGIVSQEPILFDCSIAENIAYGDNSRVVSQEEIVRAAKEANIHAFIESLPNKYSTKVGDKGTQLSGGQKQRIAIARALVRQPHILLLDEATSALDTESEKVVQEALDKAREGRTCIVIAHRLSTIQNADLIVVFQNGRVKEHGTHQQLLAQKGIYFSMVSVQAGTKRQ

CCCCCCCCCCCCC/C=C/[C@H](O)[C@@H](N)CO (relative stereo) [D,L-threo-sphingosine]
inhibition of Ara-C induced MDR1 expression (MDR1 [1]): little or no capacity to inhibit Ara-C induced MDR1 expression; also recorded: ineffective in inhibiting Ara-C induced MDR1 expression | inhibition of Ara-C induced MDR1 expression (MDR1 [1]; H9 cells, 25 μM Ara-C 10 h): - | cellular toxicity (H9 cells): higher concentrations induced cellular toxicity

CC1CN(S(=O)(=O)c2cccc3cnccc23)CCN1 (stereo not drawn) [IsoH7]
inhibition of drug-induced MDR1 expression (MDR1 [1]; IsoH7): No significant inhibition | effect on protein kinases relative to H7 (protein kinases): 10 fold

CCCCCCCCCCCCCC(=O)O[C@@H]1[C@@H](C)[C@@]2(O)[C@@H](C=C(CO)C[C@]3(O)C(=O)C(C)=C[C@@H]23)[C@@H]2C(C)(C)[C@]12OC(C)=O [TPA, 12-o-tetradecanoylphorbol-13-acetate]
effect on P-glycoprotein activity (Rh123 accumulation) (P-glycoprotein [2]): significant increase in the number of Rh123-dull cells | increase of MDR1 expression (MDR1 [3]; EJ bladder carcinoma cells): increase of MDR1 expression | induction of MDR1 mRNA and P-glycoprotein (MDR1 [3]; H9 cells): clear-cut induction of MDR1 mRNA and P-glycoprotein | time after addition at which MDR1 mRNA became detectable (MDR1 [3]; H9 cells, TPA): 2 h | time until which MDR1 mRNA continued to increase (MDR1 [3]; H9 cells, TPA): ≥ 5 h | MDR1 expression induced by TPA alone (MDR1 [3]; H-9 cells, 10 ng/ml overnight): efficiently induced readily detectable MDR1 expression | induction of MDR1 mRNA and P-glycoprotein (MDR1 [3]; K562 cells): clear-cut induction of MDR1 mRNA and P-glycoprotein | increase of MDR1 expression (MDR1 [3]; MCF-7 breast carcinoma cells): increase of MDR1 expression | MDR1 mRNA levels (MDR1 [3]; human PBL, PCR): corresponding increase in MDR1 mRNA levels | MDR1 expression, TPA-treated (MDR1 [4]): - | MDR1 expression, TPA-treated (MDR1 [4]; 0.001 ug/mL): ++ | MDR1 expression, TPA-treated (MDR1 [4]; 0.01 ug/mL): ++ | MDR1 expression, TPA-treated (MDR1 [4]; 0.1 ug/mL): +++ | MDR1 expression, TPA-treated (MDR1 [4]; EJ (bladder carcinoma), untreated +, assay F): ++ | MDR1 expression, TPA-treated (MDR1 [4]; HT 1080 (fibrosarcoma), untreated -, assays F, R): - | MDR1 expression, TPA-treated (MDR1 [4]; MCF-7 (breast carcinoma), untreated -, assay R): + | MDR1 expression, TPA-treated (MDR1 [4]; Molt-4 (T-cell leukemia), untreated -, assay F): - | MDR1 expression, TPA-treated (MDR1 [4]; THP-1, untreated -, assay F): - | MDR1 expression, TPA-treated (MDR1 [5]): ++ | MDR1 expression, TPA-treated (MDR1 [5]; mouse FL4 (thymoma), untreated ++, assay F): +++ | P-glycoprotein on the cell surface (P-glycoprotein [6]): markedly increased the levels of P-glycoprotein on the cell surface

Cc1ccc(C(=O)Nc2ccc(S(=O)(=O)O)c3cc(S(=O)(=O)O)cc(S(=O)(=O)O)c23)cc1NC(=O)c1cccc(NC(=O)Nc2cccc(C(=O)Nc3cc(C(=O)Nc4ccc(S(=O)(=O)O)c5cc(S(=O)(=O)O)cc(S(=O)(=O)O)c45)ccc3C)c2)c1 [suramin]
activity in hormone-refractory prostate cancer [7]: shown activity in hormone-refractory prostate cancer
